# Source: patent publication USRE40558E1, “Therapeutic uses of di-aryl acid derivatives” (Sanofi-Aventis Deutschland GmbH, priority 1999, dated 2008)
row,SMILES,melting point [°C]
1,"Cc1cc(OCc2ccccc2)cc(OCCCc2ccccc2)c1C(=O)O [Example 15, 4-Benzyloxy-2-methyl-6-(3-phenyl-propoxy)-benzoic Acid]",109 to 111
2,"Cc1cc(OCc2ccccc2)cc(OCC2CCCCC2)c1C(=O)O [Example 15a, 4-Benzyloxy-2-cyclohexylmethoxy-6-methyl-benzoic Acid]",127 to 128
3,"Cc1cc(OCc2ccccc2)cc(OCCCC(C)C)c1C(=O)O [Example 15b, 4-Benzyloxy-2-methyl-6-(4-methyl-pentyloxy)-benzoic Acid]",83 to 85
